In one assay the target is T1, Vasopressin V1b receptor (Homo sapiens, UniProt P47901).
T1 sequence (P47901 whole entry): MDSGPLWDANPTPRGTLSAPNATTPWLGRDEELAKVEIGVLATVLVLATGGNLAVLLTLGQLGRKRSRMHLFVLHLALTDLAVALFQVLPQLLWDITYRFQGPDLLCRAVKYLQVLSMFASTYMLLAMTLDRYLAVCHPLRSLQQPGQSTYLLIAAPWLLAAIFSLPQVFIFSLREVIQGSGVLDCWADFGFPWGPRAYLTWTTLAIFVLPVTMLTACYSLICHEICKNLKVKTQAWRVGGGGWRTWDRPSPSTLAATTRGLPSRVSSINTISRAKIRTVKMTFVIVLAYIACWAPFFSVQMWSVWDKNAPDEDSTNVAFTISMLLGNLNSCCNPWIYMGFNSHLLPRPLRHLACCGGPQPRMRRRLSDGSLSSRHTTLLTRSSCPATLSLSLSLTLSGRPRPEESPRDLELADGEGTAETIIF

The target in a further assay is Vasopressin V1a receptor (Rattus norvegicus, UniProt P30560).
Chain of Vasopressin V1a receptor (P30560 whole entry): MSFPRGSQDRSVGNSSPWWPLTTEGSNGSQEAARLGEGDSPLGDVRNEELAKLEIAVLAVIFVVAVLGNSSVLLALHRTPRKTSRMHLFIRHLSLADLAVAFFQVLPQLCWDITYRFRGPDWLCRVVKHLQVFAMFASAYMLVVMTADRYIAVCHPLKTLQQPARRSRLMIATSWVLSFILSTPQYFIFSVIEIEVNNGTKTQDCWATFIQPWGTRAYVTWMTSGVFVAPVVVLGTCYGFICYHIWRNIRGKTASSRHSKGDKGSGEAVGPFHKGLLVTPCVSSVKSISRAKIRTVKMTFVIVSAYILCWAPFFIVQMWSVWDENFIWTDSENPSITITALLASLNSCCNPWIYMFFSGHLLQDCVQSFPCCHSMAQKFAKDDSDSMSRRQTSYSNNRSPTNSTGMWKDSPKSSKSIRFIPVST
For another assay, the target named is Vasopressin V2 receptor (Rattus norvegicus, UniProt Q00788).
Chain of Vasopressin V2 receptor (Q00788 whole entry): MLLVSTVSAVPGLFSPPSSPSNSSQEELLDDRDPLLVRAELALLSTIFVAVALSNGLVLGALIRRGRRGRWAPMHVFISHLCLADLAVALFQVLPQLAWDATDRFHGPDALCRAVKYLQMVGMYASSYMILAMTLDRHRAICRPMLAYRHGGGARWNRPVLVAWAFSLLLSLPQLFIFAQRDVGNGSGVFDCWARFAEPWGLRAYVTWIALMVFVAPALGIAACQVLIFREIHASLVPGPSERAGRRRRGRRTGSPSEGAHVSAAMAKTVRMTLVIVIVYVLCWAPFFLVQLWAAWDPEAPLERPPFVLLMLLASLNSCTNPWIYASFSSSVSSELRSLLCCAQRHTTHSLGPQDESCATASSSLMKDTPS

For the compound `Cc1ccccc1C(=O)Nc1ccc(C(=O)N2CCCC(N(C)C)c3ccccc32)cc1` (stereo not given), the Ki at Vasopressin V1b receptor was greater than 10 µM; at Vasopressin V1a receptor it was 524 nM.
Take `Cc1ccccc1C(=O)Nc1ccc(C(=O)N2CCCC(O)c3cc(Cl)ccc32)c(C)c1` (stereo not given): the Ki at Vasopressin V2 receptor was 1.33 nM; at Vasopressin V1b receptor, greater than 10 µM; on Vasopressin V1a receptor it was 325 nM.

The values are drawn from BindingDB's records for PubMed 9864265 (Second Tokushima Institute of New Drug Research, 1998).
